{"source": "paper PMC3561363", "about": "“A Novel Retro-Inverso Peptide Inhibitor Reduces Amyloid Deposition, Oxidation and Inflammation and Stimulates Neurogenesis in the APPswe/PS1ΔE9 Mouse Model of Alzheimer’s Disease” (PLoS ONE, 2013)", "key": {"Aβ42": {"tested_on": "Aβ42", "assay": "Atomic force microscopy (AFM) of Aβ42 aggregation", "format": "biochemical", "settings": "1∶2 molar ratio RI-OR2-TAT:Aβ42 (12.5 µM:25 µM), 24 h, PBS pH 7.4", "protocol": "Aβ42 was incubated at 25 µM in the presence or absence of 12.5 µM RI-OR2-TAT in PBS, pH 7.4, for 24 h. Samples were diluted 1∶10 in PBS and then a 2 µl aliquot was deposited onto the surface of freshly cleaned mica and allowed to dry. Images were obtained in tapping mode using a Multimode™ SPM NanoScope IIIa microscope (Digital Instruments, New York, USA). Silicon cantilever tips measuring 125 µm long, 30 µm wide and with a tip radius <10 nm were used (Budget Sensors, Bulgaria). The resonance frequency was 300 kHz and force constants 40 N/m. All images were first order flattened and edited using WSxM 5.0 Develop 4.3 software, (Nanotech, Madrid, Spain)."}, "Human oligomerised Aβ": {"tested_on": "Human oligomerised Aβ", "assay": "Soluble Aβ oligomer levels in brain, sandwich ELISA", "format": "in vivo, human Aβ in APP/PS1 mice", "settings": "100 nmol/kg i.p. once daily, 21 days, 10 months old APP/PS1 mice, vs saline; p<0.01, 4 animals per group", "protocol": "APPswe/PS1ΔE9 mice with a C57Bl/6 background (APP/PS1 mice) were obtained from the Jackson lab (http://research.jax.org/repository/alzheimers.html). […] To look at the effects of RI-OR2-TAT on mouse brain pathology (experiment 2), 8 female 10-months-old APP/PS1 mice were used. The animals were housed in single cages in a temperature controlled holding room (21.5°C±1) with 12∶12 h light and dark cycle. Food and water was available ad libitum.\nFor experiment 2, 4 animals were injected intraperitonially (i.p.) with 0.9% NaCl (vehicle control) and the other 4 with RI-OR2-TAT (100 nmol/kg in 0.9% NaCl) once daily, for 21 days. On the 22nd day, the animals were perfused transcardially with ice-cold PBS and 4% paraformaldehyde and then the brains were removed and post-fixed in 4% ice cold paraformaldehyde.\nHuman oligomerised Aβ was measured using a kit purchased from Invitrogen, according to the manufacturer’s instructions. Briefly, the right hemispheres from the brains of transgenic APP/PS1 mice treated with RI-OR2-TAT, or controls, were pooled separately and homogenized. Quantification of total protein was determined using the Bradford protein assay and was measured on a Nanophotometer (Implen, Germany). The homogenates were centrifuged at 100,000 g at 4°C for 1 h. […] The final Aβ oligomer values were determined following normalization of total protein levels."}, "[1]": {"tested_on": "doublecortin-expressing neurons in APP/PS1 mouse dentate gyrus", "assay": "Young immature neurons, doublecortin immunostaining, dentate region", "format": "in vivo", "settings": "100 nmol/kg i.p. once daily, 21 days, 10 months old APP/PS1 mice, vs saline, p<0.0001, 4 animals per group"}, "[2]": {"tested_on": "SHSY-5Y neuroblastoma cells exposed to pre-aggregated Aβ42", "assay": "Protection against Aβ42 toxicity, LDH assay", "format": "cell-based", "settings": "0.5, 1, 5 or 10 µM inhibitor, 5 µM pre-aggregated Aβ42, 24 h, Optimem", "protocol": "For cell toxicity assays, SHSY-5Y neuroblastoma cells were maintained in 10% Fetal Calf Serum supplemented Dulbecco’s Modified Eagle Medium (DMEM, Gibco) under standard mammalian cell culture conditions. The cells were transferred to sterile 96-well growth plates at 20,000 cells/well and 4 wells per condition. To test for any toxic effects of RI-OR2–TAT alone on the cells, they were left to adhere for 24 h before the addition of the inhibitor (at 12.5, 25, 50, 100 and 200 µM), in DMEM. To assess the ability of RI-OR2–TAT to protect against Aβ toxicity, the cell growth medium was changed to Optimem (Invitrogen) and Aβ42, pre-aggregated (at 100 µM) for 24 h at 25°C in PBS, was added to the cells at a concentration of 5 µM, together with various amounts (0, 0.1, 0.5, 1, 5 or 10 µM) of RI-OR2–TAT. In each case, after a further 24 h incubation period, the viability of the cells was assessed using a CytoTox 96® Non-Radioactive Cytotoxicity Assay (LDH) Assay (Promega) kit."}, "Aβ42 fibrils": {"target": "Aβ42 fibrils (Homo sapiens, UniProt P05067)", "sequence (P05067 672-713 limits assumed)": "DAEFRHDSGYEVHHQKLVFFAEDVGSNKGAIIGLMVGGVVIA", "assay": "Surface plasmon resonance (SPR), immobilized Aβ42 fibrils", "format": "binding", "protocol": "These experiments were conducted using a Sensi Q semi-automatic SPR machine (ICx Nomadics). This apparatus has two parallel flow cells; one was used to immobilize Aβ42 fibrils while the other was used as “reference” (empty surface). A COOH5 sensor chip (ICx Nomadics) was employed for this purpose and the peptide was immobilized by amine coupling chemistry. Briefly, after surface activation, the peptide preparation was diluted to 10 µM in acetate buffer (pH 4.0) and then injected for 5 min at a flow rate of 30 µl/min. Any remaining activated groups were blocked with ethanolamine (pH 8.0). The final immobilization level was ∼5,000 resonance units (1 RU = 1 pg of protein/mm^2). The empty “reference” surface was prepared in parallel using the same immobilization procedure, but without addition of the peptide. Sensorgrams were then obtained via injection of three different concentrations of RI-OR2–TAT (1, 3 and 6 µM), as well as the vehicle (PBS with 0.005% Tween 20), over the immobilized ligand or control surface, in parallel. These SPR data can be interpreted to provide an estimate for the affinity of binding of the inhibitors to Aβ fibrils, [28]. Data for the three concentrations of RI-OR2-TAT were fitted separately by Qdat software [ICx Nomadics] using the 1∶1 pseudo-first order Langmuir interaction model. Eq. 1 was used to fit the association while the dissociation was fitted by eq. 2. The rate constants (kon and koff) were used to calculate kd as reported in eq. 3. [drawing 1] (1) [drawing 2] (2) [drawing 3] (3) Where Rt is binding response at time t; C is the molar concentration of the analyte at the interaction surface at time t; Rmax is the maximal binding response; R0 is the binding response at time t0 (i. e. time at the onset of the dissociation phase); kon is the association rate constant; koff is the dissociation rate constant. Values were expressed as a mean ± SD."}}, "note": "Where a SMILES comes first, the peptide text is derived from it.", "data": [{"smiles": "CC(=O)N[C@H](CCCNC(=N)N)C(=O)NCC(=O)N[C@H](Cc1ccccc1)C(=O)N[C@H](Cc1ccccc1)C(=O)N[C@@H](C(=O)N[C@H](CC(C)C)C(=O)N[C@H](CCCCN)C(=O)NCC(=O)N[C@H](CCCNC(=N)N)C(=O)N[C@H](CCCNC(=N)N)C(=O)N[C@H](CCCNC(=N)N)C(=O)N[C@H](CCCNC(=N)N)C(=O)N[C@H](CCC(N)=O)C(=O)N[C@H](CCCNC(=N)N)C(=O)N[C@H](CCCNC(=N)N)C(=O)N[C@H](CCCCN)C(=O)N[C@H](CCCCN)C(=O)N[C@H](CCCNC(=N)N)C(=O)NCC(=O)N[C@H](Cc1ccc(O)cc1)C(N)=O)C(C)C", "note": "[RI-OR2-TAT, Ac-rGffvlkGrrrrqrrkkrGy-NH2] (HELM PEPTIDE1{[ac].[dR].G.[dF].[dF].[dV].[dL].[dK].G.[dR].[dR].[dR].[dR].[dQ].[dR].[dR].[dK].[dK].[dR].G.[dY].[am]}$$$$V2.0)", "values": [{"measurement": "inhibition of oligomer formation by AFM", "setting": "Aβ42", "value": "clear inhibition of oligomer formation"}, {"measurement": "reduction of soluble Aß oligomer levels in brain", "setting": "Human oligomerised Aβ", "value": 25, "unit": "%"}, {"measurement": "increase in mean number of young doublecortin-expressing neurons", "setting": "[1]", "value": 210, "unit": "%"}, {"measurement": "protection against toxic effects of pre-aggregated Aβ42", "setting": "[2]", "value": "protected against the toxic effects"}, {"measurement": "fold lower kd than previously reported for RI-OR2", "setting": "Aβ42 fibrils; Aβ42 fibrils, SPR, RI-OR2 value from ref 16", "value": "~100 -fold"}, {"measurement": "koff", "setting": "Aβ42 fibrils; SPR, 1, 3 and 6 µM, 1∶1 Langmuir model, PBS with 0.005% Tween 20, mean ± SD, read-out: koff (dissociation rate constant)", "value": "0.00037 ± 0.00015", "unit": "s⁻¹"}, {"measurement": "kon", "setting": "Aβ42 fibrils; SPR, 1, 3 and 6 µM, 1∶1 Langmuir model, PBS with 0.005% Tween 20, mean ± SD, read-out: kon (association rate constant)", "value": "3680 ± 615", "unit": "M⁻¹ s⁻¹"}, {"measurement": "Kd", "setting": "Aβ42 fibrils; SPR, Aβ42 fibrils, from koff and kon, 1∶1 Langmuir model, three concentrations fitted separately, read-out: kd (calculated apparent affinity)", "value": "58 to 125", "unit": "nM"}]}]}
